From publication PMC10885153, “Membrane Permeability in a Large Macrocyclic Peptide Driven by a Saddle-Shaped Conformation” (Journal of the American Chemical Society, 2024)
Positions of bridges follow the written chain, without caps; N, C: chain ends. Non-standard residues stand in square brackets, D forms with d. Residues, ends and D or L forms follow the SMILES beside them. NMeC = CN[C@@H](CS)C(=O)O; NMeA = CN[C@@H](C)C(=O)O; dAbu = CC[C@@H](N)C(=O)O; dNMeA = CN[C@H](C)C(=O)O; Nva = CCC[C@H](N)C(=O)O; Abu = CC[C@H](N)C(=O)O; Nleu = CC(C)CNCC(=O)O; NPrGly = CCCNCC(=O)O; NEtG = CCNCC(=O)O

Assay: not given
Conditions: not given

Structure (SMILES)	PAMPA Pe_avg [×10⁻⁶ cm/s]
CCOC(=O)[C@@H]1CSCC(=O)N[C@H](CC)C(=O)N(C)[C@@H](C)C(=O)N[C@H](CC(C)C)C(=O)N2CCC[C@@H]2C(=O)N(CC)CC(=O)N[C@@H](CC(C)C)C(=O)N(C)[C@@H](C)C(=O)N[C@@H](CC(C)C)C(=O)N1C [JF206_ADD_DDLL_Ethyl] ({CH2CO}-[dAbu][NMeA][dL][dP][NEtG]L[NMeA]L[NMeC]-OEt; thioether N-9)	0
CCOC(=O)[C@@H]1CSCC(=O)N[C@H](CC)C(=O)N(C)[C@@H](C)C(=O)N[C@@H](CC(C)C)C(=O)N2CCC[C@@H]2C(=O)N(CC)CC(=O)N[C@H](CC(C)C)C(=O)N(C)[C@H](C)C(=O)N[C@@H](CC(C)C)C(=O)N1C [JF206_ADD_DLDD_Ethyl] ({CH2CO}-[dAbu][NMeA]L[dP][NEtG][dL][dNMeA]L[NMeC]-OEt; thioether N-9)	0
CCOC(=O)[C@@H]1CSCC(=O)N[C@@H](CC)C(=O)N(C)[C@@H](C)C(=O)N[C@H](CC(C)C)C(=O)N2CCC[C@@H]2C(=O)N(CC)CC(=O)N[C@@H](CC(C)C)C(=O)N(C)[C@H](C)C(=O)N[C@@H](CC(C)C)C(=O)N1C [JF206_ADL_LDLD_Ethyl] ({CH2CO}-[Abu][NMeA][dL][dP][NEtG]L[dNMeA]L[NMeC]-OEt; thioether N-9)	0
CCOC(=O)[C@@H]1CSCC(=O)N[C@H](CC)C(=O)N(C)[C@@H](C)C(=O)N[C@@H](CC(C)C)C(=O)N2CCC[C@H]2C(=O)N(CC)CC(=O)N[C@H](CC(C)C)C(=O)N(C)[C@H](C)C(=O)N[C@@H](CC(C)C)C(=O)N1C [JF206_ALD_DLDD_Ethyl] ({CH2CO}-[dAbu][NMeA]LP[NEtG][dL][dNMeA]L[NMeC]-OEt; thioether N-9)	0

Same assay, conditions: PAMPA, 10 µM, pH 7.4

Structure (SMILES)	%R_avg [%]
CCC[C@@H]1NC(=O)[C@H](C)N(C)C(=O)[C@H](CC(C)C)NC(=O)CSC[C@@H](C(=O)OCC)N(C)C(=O)[C@H](CC(C)C)NC(=O)[C@H](C)N(C)C(=O)[C@H](CC)NC(=O)CN(CC)C(=O)[C@H]2CCCN2C1=O [LA01, O=C(N(C)[C@H](C(OCC)=O)CSCC(N[C@H](C(N(C)[C@@H](C)C(N[C@@H](CCC)C(N1[C@H](CCC1)C(N(CC)CC(N[C@H]2CC)=O)=O)=O)=O)=O)CC(C)C)=O)[C@H](CC(C)C)NC([C@H](C)N(C)C2=O)=O] ({CH2CO}-L[NMeA][Nva][dP][NEtG][Abu][NMeA]L[NMeC]-OEt; thioether N-9)	33.1
CCC[C@@H]1NC(=O)[C@H](C)N(C)C(=O)[C@H](CC(C)C)NC(=O)CSC[C@@H](C(=O)OCC)N(C)C(=O)[C@H](CC(C)C)NC(=O)[C@H](C)N(C)C(=O)[C@H](CC)NC(=O)CN(CCC)C(=O)[C@H]2CCCN2C1=O [LA03, O=C(N(C)[C@H](C(OCC)=O)CSCC(N[C@H](C(N(C)[C@@H](C)C(N[C@@H](CCC)C(N1[C@H](CCC1)C(N(CCC)CC(N[C@H]2CC)=O)=O)=O)=O)=O)CC(C)C)=O)[C@H](CC(C)C)NC([C@H](C)N(C)C2=O)=O] ({CH2CO}-L[NMeA][Nva][dP][NPrGly][Abu][NMeA]L[NMeC]-OEt; thioether N-9)	25.8

Assay: in vitro
Conditions: PAMPA, pH 7.4, PAMPA Pe_avg

Structure (SMILES)	Papp at 10 µM [×10⁻⁶ cm/s]
CCOC(=O)[C@@H]1CSCC(=O)N[C@H](CC)C(=O)N(C)[C@@H](C)C(=O)N[C@H](CC(C)C)C(=O)N2CCC[C@H]2C(=O)N(CC(C)C)CC(=O)N[C@@H](CC(C)C)C(=O)N(C)[C@@H](C)C(=O)N[C@@H](CC(C)C)C(=O)N1C [JF206_ALD_DDLL_Isobutyl] ({CH2CO}-[dAbu][NMeA][dL]P[Nleu]L[NMeA]L[NMeC]-OEt; thioether N-9)	0.075
CCOC(=O)[C@@H]1CSCC(=O)N[C@H](CC)C(=O)N(C)[C@@H](C)C(=O)N[C@@H](CC(C)C)C(=O)N2CCC[C@H]2C(=O)N(CC(C)C)CC(=O)N[C@H](CC(C)C)C(=O)N(C)[C@H](C)C(=O)N[C@@H](CC(C)C)C(=O)N1C [JF206_ALD_DLDD_Isobutyl] ({CH2CO}-[dAbu][NMeA]LP[Nleu][dL][dNMeA]L[NMeC]-OEt; thioether N-9)	0.038
CCOC(=O)[C@@H]1CSCC(=O)N[C@H](CC)C(=O)N(C)[C@@H](C)C(=O)N[C@@H](CC(C)C)C(=O)N2CCC[C@H]2C(=O)N(CC)CC(=O)N[C@H](CC(C)C)C(=O)N(C)[C@@H](C)C(=O)N[C@@H](CC(C)C)C(=O)N1C [JF206_ALD_DLDL_Ethyl] ({CH2CO}-[dAbu][NMeA]LP[NEtG][dL][NMeA]L[NMeC]-OEt; thioether N-9)	0.027
CCOC(=O)[C@@H]1CSCC(=O)N[C@H](CC)C(=O)N(C)[C@@H](C)C(=O)N[C@@H](CC(C)C)C(=O)N2CCC[C@H]2C(=O)N(CC(C)C)CC(=O)N[C@H](CC(C)C)C(=O)N(C)[C@@H](C)C(=O)N[C@@H](CC(C)C)C(=O)N1C [JF206_ALD_DLDL_Isobutyl] ({CH2CO}-[dAbu][NMeA]LP[Nleu][dL][NMeA]L[NMeC]-OEt; thioether N-9)	0.248
CCOC(=O)[C@@H]1CSCC(=O)N[C@H](CC)C(=O)N(C)[C@@H](C)C(=O)N[C@@H](CC(C)C)C(=O)N2CCC[C@H]2C(=O)N(CC)CC(=O)N[C@@H](CC(C)C)C(=O)N(C)[C@H](C)C(=O)N[C@@H](CC(C)C)C(=O)N1C [JF206_ALD_DLLD_Ethyl] ({CH2CO}-[dAbu][NMeA]LP[NEtG]L[dNMeA]L[NMeC]-OEt; thioether N-9)	0.016
CCOC(=O)[C@@H]1CSCC(=O)N[C@H](CC)C(=O)N(C)[C@@H](C)C(=O)N[C@@H](CC(C)C)C(=O)N2CCC[C@H]2C(=O)N(CC(C)C)CC(=O)N[C@@H](CC(C)C)C(=O)N(C)[C@H](C)C(=O)N[C@@H](CC(C)C)C(=O)N1C [JF206_ALD_DLLD_Isobutyl] ({CH2CO}-[dAbu][NMeA]LP[Nleu]L[dNMeA]L[NMeC]-OEt; thioether N-9)	0.117

More lines, now with the values ahead:

Papp at 10 µM [×10⁻⁶ cm/s]	Structure (SMILES)
0.598	CCOC(=O)[C@@H]1CSCC(=O)N[C@H](CC)C(=O)N(C)[C@@H](C)C(=O)N[C@@H](CC(C)C)C(=O)N2CCC[C@H]2C(=O)N(CC(C)C)CC(=O)N[C@@H](CC(C)C)C(=O)N(C)[C@@H](C)C(=O)N[C@@H](CC(C)C)C(=O)N1C [JF206_ALD_DLLL_Isobutyl] ({CH2CO}-[dAbu][NMeA]LP[Nleu]L[NMeA]L[NMeC]-OEt; thioether N-9)
0.623	CCOC(=O)[C@@H]1CSCC(=O)N[C@@H](CC)C(=O)N(C)[C@@H](C)C(=O)N[C@H](CC(C)C)C(=O)N2CCC[C@H]2C(=O)N(CC)CC(=O)N[C@H](CC(C)C)C(=O)N(C)[C@H](C)C(=O)N[C@@H](CC(C)C)C(=O)N1C [JF206_ALL_LDDD_Ethyl] ({CH2CO}-[Abu][NMeA][dL]P[NEtG][dL][dNMeA]L[NMeC]-OEt; thioether N-9)
0.012	CCOC(=O)[C@@H]1CSCC(=O)N[C@@H](CC)C(=O)N(C)[C@@H](C)C(=O)N[C@H](CC(C)C)C(=O)N2CCC[C@H]2C(=O)N(CC)CC(=O)N[C@@H](CC(C)C)C(=O)N(C)[C@H](C)C(=O)N[C@@H](CC(C)C)C(=O)N1C [JF206_ALL_LDLD_Ethyl] ({CH2CO}-[Abu][NMeA][dL]P[NEtG]L[dNMeA]L[NMeC]-OEt; thioether N-9)
0.015	CCOC(=O)[C@@H]1CSCC(=O)N[C@@H](CC)C(=O)N(C)[C@@H](C)C(=O)N[C@H](CC(C)C)C(=O)N2CCC[C@H]2C(=O)N(CC)CC(=O)N[C@@H](CC(C)C)C(=O)N(C)[C@@H](C)C(=O)N[C@@H](CC(C)C)C(=O)N1C [JF206_ALL_LDLL_Ethyl] ({CH2CO}-[Abu][NMeA][dL]P[NEtG]L[NMeA]L[NMeC]-OEt; thioether N-9)
0.00468	CCOC(=O)[C@@H]1CSCC(=O)N[C@@H](CC)C(=O)N(C)[C@@H](C)C(=O)N[C@@H](CC(C)C)C(=O)N2CCC[C@H]2C(=O)N(CC)CC(=O)N[C@H](CC(C)C)C(=O)N(C)[C@H](C)C(=O)N[C@@H](CC(C)C)C(=O)N1C [JF206_ALL_LLDD_Ethyl] ({CH2CO}-[Abu][NMeA]LP[NEtG][dL][dNMeA]L[NMeC]-OEt; thioether N-9)
0.182	CCOC(=O)[C@@H]1CSCC(=O)N[C@@H](CC)C(=O)N(C)[C@@H](C)C(=O)N[C@@H](CC(C)C)C(=O)N2CCC[C@H]2C(=O)N(CC(C)C)CC(=O)N[C@H](CC(C)C)C(=O)N(C)[C@H](C)C(=O)N[C@@H](CC(C)C)C(=O)N1C [JF206_ALL_LLDD_Isobutyl] ({CH2CO}-[Abu][NMeA]LP[Nleu][dL][dNMeA]L[NMeC]-OEt; thioether N-9)
0.003	CCOC(=O)[C@@H]1CSCC(=O)N[C@@H](CC)C(=O)N(C)[C@@H](C)C(=O)N[C@@H](CC(C)C)C(=O)N2CCC[C@H]2C(=O)N(CC)CC(=O)N[C@H](CC(C)C)C(=O)N(C)[C@@H](C)C(=O)N[C@@H](CC(C)C)C(=O)N1C [JF206_ALL_LLDL_Ethyl] ({CH2CO}-[Abu][NMeA]LP[NEtG][dL][NMeA]L[NMeC]-OEt; thioether N-9)
0.093	CCOC(=O)[C@@H]1CSCC(=O)N[C@@H](CC)C(=O)N(C)[C@@H](C)C(=O)N[C@@H](CC(C)C)C(=O)N2CCC[C@H]2C(=O)N(CC(C)C)CC(=O)N[C@H](CC(C)C)C(=O)N(C)[C@@H](C)C(=O)N[C@@H](CC(C)C)C(=O)N1C [JF206_ALL_LLDL_Isobutyl] ({CH2CO}-[Abu][NMeA]LP[Nleu][dL][NMeA]L[NMeC]-OEt; thioether N-9)
0.014	CCOC(=O)[C@@H]1CSCC(=O)N[C@@H](CC)C(=O)N(C)[C@@H](C)C(=O)N[C@@H](CC(C)C)C(=O)N2CCC[C@H]2C(=O)N(CC)CC(=O)N[C@@H](CC(C)C)C(=O)N(C)[C@H](C)C(=O)N[C@@H](CC(C)C)C(=O)N1C [JF206_ALL_LLLD_Ethyl] ({CH2CO}-[Abu][NMeA]LP[NEtG]L[dNMeA]L[NMeC]-OEt; thioether N-9)
0.139	CCOC(=O)[C@@H]1CSCC(=O)N[C@@H](CC)C(=O)N(C)[C@@H](C)C(=O)N[C@@H](CC(C)C)C(=O)N2CCC[C@H]2C(=O)N(CC(C)C)CC(=O)N[C@@H](CC(C)C)C(=O)N(C)[C@H](C)C(=O)N[C@@H](CC(C)C)C(=O)N1C [JF206_ALL_LLLD_Isobutyl] ({CH2CO}-[Abu][NMeA]LP[Nleu]L[dNMeA]L[NMeC]-OEt; thioether N-9)
0.678	CCOC(=O)[C@@H]1CSCC(=O)N[C@@H](CC)C(=O)N(C)[C@@H](C)C(=O)N[C@@H](CC(C)C)C(=O)N2CCC[C@H]2C(=O)N(CC)CC(=O)N[C@@H](CC(C)C)C(=O)N(C)[C@@H](C)C(=O)N[C@@H](CC(C)C)C(=O)N1C [JF206_ALL_LLLL_Ethyl] ({CH2CO}-[Abu][NMeA]LP[NEtG]L[NMeA]L[NMeC]-OEt; thioether N-9)
